Data from patent publication US9872495B2, “Peptoid oligomers, pharmaceutical compositions and methods of using the same” (priority 2009, dated 2018).
Converted amounts (≈) assume the structure as drawn. Where two headings read alike, the source gives them in different places. Numbered stars: 1 amine (or outer) side, 2 acyl side, 3 side chain; on linkers, the order of the positions; unused ones are H or OH. Square brackets hold non-standard residues; d marks the D form. Peptide text beside a SMILES is read from it. X1 = O=C(CN(CC(c1ccccc1)c1ccccc1)[*:1])[*:2]; Gly(N-(CH2)6NH2) = NCCCCCCNCC(=O)O; Gly(N(CH2)3NH2) = NCCCNCC(=O)O; NhArg = N=C(N)NCCCCNCC(=O)O; N(iPr)Gly = CC(C)NCC(=O)O; Nphe = O=C(O)CNCc1ccccc1; Nleu = CC(C)CNCC(=O)O

Columns and labels:
Assay type in all cases: cell-based
fresh human erythrocytes = experiment: Hemolytic activity
Protocol: Typically, toxicity is evaluated by hemolytic concentration50 (HC50), which measures the concentration of antimicrobial agents at which 50% of the erythrocytes in the culture are lysed. Significant hemolysis, as evaluated by HC50, was detectable only for peptide gramicidin S (40 μg/mL). […] In order to test hemolytic activity of peptoid oligomers further, more stringent parameters were used. Instead of HC50, hemolytic concentration10 (HC10) was used to evaluate hemolytic activity of peptoids used in this study. HC10 represents the concentration of antimicrobial agents where 10% of erythrocytes are lysed. HC10 values were detectable for only four peptoid oligomers. […] Antimicrobial activity was tested against the gram-negative strain Escherichia coli ATCC 25922, and […] strains Staphylococcus aureus ATCC 25923, and Bacillus subtilis ATCC 6633, according to the guidelines given in the document […]-A7 of the CLSI (Clinical and Laboratory Standards Institute; Clinical and Laboratory Standards Institute. Methods for Dilution Antimicrobial Susceptibility Tests for Bacteria That Grow Aerobically-Seventh Edition: Approved Standard CLSI document […]-A7. CLSI, Wayne, USA, 2006). This reference is incorporated herein in its entirety. Hemolytic activity was tested against fresh human erythrocytes.

[1] = test system: Escherichia coli ATCC 25922
Protocol: (§1) Antimicrobial activity was tested against the gram-negative strain Escherichia coli ATCC 25922, and […] strains Staphylococcus aureus ATCC 25923, and Bacillus subtilis ATCC 6633, according to the guidelines given in the document […]-A7 of the CLSI (Clinical and Laboratory Standards Institute; Clinical and Laboratory Standards Institute. Methods for Dilution Antimicrobial Susceptibility Tests for Bacteria That Grow Aerobically-Seventh Edition: Approved Standard CLSI document […]-A7. CLSI, Wayne, USA, 2006). This reference is incorporated herein in its entirety. Hemolytic activity was tested against fresh human erythrocytes.

[2] = test system: Bacillus subtilis ATCC 6633
Protocol: as §1

[3] = test system: Staphylococcus aureus ATCC 25923
Protocol: as §1

## CC(=O)N(CCCCNC(=N)N)CC(=O)N(CC(=O)N(CCCCNC(=N)N)CC(=O)N(CC(=O)N(CCCCNC(=N)N)CC(=O)N(CC(N)=O)Cc1ccccc1)Cc1ccccc1)Cc1ccccc1 [Compound 2, Ac(NgbNpm)3] (Ac-[NhArg][Nphe][NhArg][Nphe][NhArg][Nphe]-NH2)
Fresh human erythrocytes; red cells of human
  HC10 (concentration where 10% hemolysis is observed): >250 µg/mL
  HC50 (concentration where 50% hemolysis is observed): >250 µg/mL
[1]; ATCC 25922
  MIC E. coli: 250 µg/mL (≈ 247 µM)
[2]; ATCC 6633
  MIC B. sub: 62.5 µg/mL (≈ 61.8 µM)
[3]; ATCC 25923
  MIC S. aureus: 125 µg/mL (≈ 124 µM)

## CC(=O)N(CCCCCCN)CC(=O)N(CC(=O)N(CCCCCCN)CC(=O)N(CC(=O)N(CCCCCCN)CC(=O)N(CC(N)=O)Cc1ccccc1)Cc1ccccc1)Cc1ccccc1 [Compound 3, Ac(NahNpm)3] (Ac-[Gly(N-(CH2)6NH2)][Nphe][Gly(N-(CH2)6NH2)][Nphe][Gly(N-(CH2)6NH2)][Nphe]-NH2)
Fresh human erythrocytes; red cells of human
  HC10 (concentration where 10% hemolysis is observed): >250 µg/mL
  HC50 (concentration where 50% hemolysis is observed): >250 µg/mL
[1]; ATCC 25922
  MIC E. coli: >500 µg/mL
[2]; ATCC 6633
  MIC B. sub: >500 µg/mL
[3]; ATCC 25923
  MIC S. aureus: >500 µg/mL

## CC(=O)N(CCCN)CC(=O)N(CC(=O)N(CCCN)CC(=O)N(CC(=O)N(CCCN)CC(=O)N(CC(N)=O)Cc1ccc2ccccc2c1)Cc1ccc2ccccc2c1)Cc1ccc2ccccc2c1 [Compound 5, Ac(NapNnm)3]
Fresh human erythrocytes; red cells of human
  HC10 (concentration where 10% hemolysis is observed): >250 µg/mL
  HC50 (concentration where 50% hemolysis is observed): >250 µg/mL
[1]; ATCC 25922
  MIC E. coli: 62.5 µg/mL (≈ 62.9 µM)
[2]; ATCC 6633
  MIC B. sub: 2 µg/mL (≈ 2.01 µM)
[3]; ATCC 25923
  MIC S. aureus: 125 µg/mL (≈ 126 µM)

## CC(=O)N(CCCN)CC(=O)N(CC(=O)N(CCCN)CC(=O)N(CC(=O)N(CCCN)CC(=O)N(CCCN)CC(N)=O)Cc1ccccc1)Cc1ccccc1 [Compound 6, Ac(NapNpm)2Nap2] (Ac-[Gly(N(CH2)3NH2)][Nphe][Gly(N(CH2)3NH2)][Nphe][Gly(N(CH2)3NH2)][Gly(N(CH2)3NH2)]-NH2)
Fresh human erythrocytes; red cells of human
  HC10 (concentration where 10% hemolysis is observed): >250 µg/mL
  HC50 (concentration where 50% hemolysis is observed): >250 µg/mL
[1]; ATCC 25922
  MIC E. coli: >500 µg/mL
[2]; ATCC 6633
  MIC B. sub: >500 µg/mL
[3]; ATCC 25923
  MIC S. aureus: >500 µg/mL

## CC(=O)N(CCCN)CC(=O)N(CC(=O)N(CCCN)CC(=O)N(CC(=O)N(CCCN)CC(=O)N(CC(N)=O)Cc1ccccc1)Cc1ccccc1)Cc1ccccc1 [Compound 7, Ac(NapNpm)3] (Ac-[Gly(N(CH2)3NH2)][Nphe][Gly(N(CH2)3NH2)][Nphe][Gly(N(CH2)3NH2)][Nphe]-NH2)
Fresh human erythrocytes; red cells of human
  HC10 (concentration where 10% hemolysis is observed): >250 µg/mL
  HC50 (concentration where 50% hemolysis is observed): >250 µg/mL
[1]; ATCC 25922
  MIC E. coli: 125 µg/mL (≈ 148 µM)
[2]; ATCC 6633
  MIC B. sub: 125 µg/mL (≈ 148 µM)
[3]; ATCC 25923
  MIC S. aureus: 250 µg/mL (≈ 297 µM)

## CC(=O)N(CCCN)CC(=O)N(CC(=O)N(CCCN)CC(=O)N(CC(=O)N(CCCN)CC(=O)N(CC(=O)N(CCCN)CC(=O)N(CC(N)=O)Cc1ccccc1)Cc1ccccc1)Cc1ccccc1)Cc1ccccc1 [Compound 8, Ac(NapNpm)4] (Ac-[Gly(N(CH2)3NH2)][Nphe][Gly(N(CH2)3NH2)][Nphe][Gly(N(CH2)3NH2)][Nphe][Gly(N(CH2)3NH2)][Nphe]-NH2)
Fresh human erythrocytes; red cells of human
  HC10 (concentration where 10% hemolysis is observed): >250 µg/mL
  HC50 (concentration where 50% hemolysis is observed): >250 µg/mL
[1]; ATCC 25922
  MIC E. coli: 250 µg/mL (≈ 226 µM)
[2]; ATCC 6633
  MIC B. sub: 31.3 µg/mL (≈ 28.3 µM)
[3]; ATCC 25923
  MIC S. aureus: 250 µg/mL (≈ 226 µM)

## CC(=O)N(CCCN)CC(=O)N(CC(=O)N(CCCN)CC(=O)N(CC(=O)N(CCCN)CC(=O)N(CC(=O)N(CCCN)CC(=O)N(CC(=O)N(CCCN)CC(=O)N(CC(N)=O)Cc1ccccc1)Cc1ccccc1)Cc1ccccc1)Cc1ccccc1)Cc1ccccc1 [Compound 9, Ac(NapNpm)5] (Ac-[Gly(N(CH2)3NH2)][Nphe][Gly(N(CH2)3NH2)][Nphe][Gly(N(CH2)3NH2)][Nphe][Gly(N(CH2)3NH2)][Nphe][Gly(N(CH2)3NH2)][Nphe]-NH2)
Fresh human erythrocytes; red cells of human
  HC10 (concentration where 10% hemolysis is observed): >250 µg/mL
  HC50 (concentration where 50% hemolysis is observed): >250 µg/mL
[1]; ATCC 25922
  MIC E. coli: 31.3 µg/mL (≈ 22.9 µM)
[2]; ATCC 6633
  MIC B. sub: 15.6 µg/mL (≈ 11.4 µM)
[3]; ATCC 25923
  MIC S. aureus: 62.5 µg/mL (≈ 45.8 µM)

## CC(=O)N(CC(=O)N(CCCN)CC(=O)N(CC(=O)N(CCCN)CC(=O)N(CC(=O)N(CC(N)=O)Cc1ccccc1)Cc1ccccc1)Cc1ccccc1)Cc1ccccc1 [Compound 10, Ac(NpmNap)2Npm2] (Ac-[Nphe][Gly(N(CH2)3NH2)][Nphe][Gly(N(CH2)3NH2)][Nphe][Nphe]-NH2)
Fresh human erythrocytes; red cells of human
  HC10 (concentration where 10% hemolysis is observed): >250 µg/mL
  HC50 (concentration where 50% hemolysis is observed): >250 µg/mL
[1]; ATCC 25922
  MIC E. coli: >500 µg/mL
[2]; ATCC 6633
  MIC B. sub: 31.3 µg/mL (≈ 35.7 µM)
[3]; ATCC 25923
  MIC S. aureus: >500 µg/mL

## CC(=O)N(CC(=O)N(CCCN)CC(=O)N(CC(=O)N(CC(=O)N1CCC[C@H]1C(=O)N(CC(=O)N(CCCN)CC(=O)N(CC(=O)N(CC(=O)N1CCC[C@H]1C(N)=O)Cc1ccccc1)CC(C)C)C(C)C)Cc1ccccc1)CC(C)C)C(C)C [Compound 11, Ac(NipNapNibNpmPro)2] (Ac-[N(iPr)Gly][Gly(N(CH2)3NH2)][Nleu][Nphe]P[N(iPr)Gly][Gly(N(CH2)3NH2)][Nleu][Nphe]P-NH2)
Fresh human erythrocytes; fresh human erythrocytes
  HC10 (concentration where 10% hemolysis is observed): >250 µg/mL
  HC50 (concentration where 50% hemolysis is observed): >250 µg/mL
[1]; E. coli ATCC 25922
  MIC E. coli: >500 µg/mL
[2]; B. subtilis ATCC 6633
  MIC B. sub: >500 µg/mL
[3]; S. aureus ATCC 25923
  MIC S. aureus: >500 µg/mL

## CC(=O)N(CC(=O)N(CC(=O)N(CCCCNC(=N)N)CC(=O)N(CC(=O)N1CCC[C@H]1C(=O)N(CC(=O)N(CC(=O)N(CCCCNC(=N)N)CC(=O)N(CC(=O)N1CCC[C@H]1C(N)=O)C(C)C)CC(C)C)CC(c1ccccc1)c1ccccc1)C(C)C)CC(C)C)CC(c1ccccc1)c1ccccc1 [Compound 12, Ac(NdpNibNgbNipPro)2] (Ac-[X1][Nleu][NhArg][N(iPr)Gly]P[X1][Nleu][NhArg][N(iPr)Gly]P-NH2)
Fresh human erythrocytes; red cells of human
  HC10 (concentration where 10% hemolysis is observed): >250 µg/mL
  HC50 (concentration where 50% hemolysis is observed): >250 µg/mL
[1]; ATCC 25922
  MIC E. coli: 250 µg/mL (≈ 167 µM)
[2]; ATCC 6633
  MIC B. sub: 500 µg/mL (≈ 335 µM)
[3]; ATCC 25923
  MIC S. aureus: 500 µg/mL (≈ 335 µM)

## CC(C)CN1CC(=O)N(CCCN)CC(=O)N(C(C)C)CC(=O)N2CCC[C@H]2C(=O)N(Cc2ccccc2)CC(=O)N(CC(C)C)CC(=O)N(CCCN)CC(=O)N(C(C)C)CC(=O)N2CCC[C@H]2C(=O)N(Cc2ccccc2)CC1=O [Compound 29, C(NpmNibNapNipPro)2] (cyclo([Nleu][Gly(N(CH2)3NH2)][N(iPr)Gly]P[Nphe][Nleu][Gly(N(CH2)3NH2)][N(iPr)Gly]P[Nphe]))
Fresh human erythrocytes; red cells of human
  HC10 (concentration where 10% hemolysis is observed): >250 µg/mL
  HC50 (concentration where 50% hemolysis is observed): >250 µg/mL
